Tests used:
telomerase [1] = experiment: Direct telomerase assay in the absence or presence of POT1-TPP1 (processivity R1/2); type: biochemical, human; details: analog substituted for its natural dNTP
Excerpt: Next we tested whether the telomerase processivity factor POT1–TPP1 modulates modified dNTP inhibition of telomerase. POT1 binds to the telomeric ssDNA overhang, requiring the minimum sequence of 5′-[…]-3′[38]. Inclusion of POT1-binding partner TPP1, increases the binding affinity for telomeric DNA ten-fold compared to POT1 alone. POT1–TPP1 recruits telomerase to telomeres in vivo[39], and greatly increases telomerase repeat processivity. Therefore, we reasoned that POT1–TPP1 may overcome inhibition by the modified dNTPs and enhance telomerase processivity. We conducted telomerase extension reactions with radiolabeled primer in the presence of POT1–TPP1, and used a primer with a single mutation ([…]; underlined G to C mutation)[40] to ensure POT1–TPP1 is positioned at the 5′ portion of the primer (Fig. 5). This provides a homogenous substrate for telomerase extension.
For these reactions, we replaced the natural dNTP with the modified dNTP analog, while the other dNTPs remained at cellular relevant concentrations.
Direct telomerase assays were conducted in the absence or presence of 500 nM POT1 and 500 nM TPP1, as indicated, and 5 nM ^32P-end labeled primer ([…]) designed to position POT1 at the 10 nt primer 5′ end. Reactions contained cellular-concentration dNTPs (lanes 1 and 2), except when the natural dNTP was substituted with the oxidized dNTP a or therapeutic dNTP b analog (lanes 3–8), as indicated. […] Letters on the right indicate template base; P indicates unextended 18-mer primer. c Processivity was calculated on the basis of total products normalized to loading control. Images are representative of, and data are shown as mean ± s.d. from 3 to 5 independent experiments. Source data are provided as a Source Data file.
(§1) The reactions were started by the addition of 3 μl of immunopurified telomerase eluent, incubated at 37 °C for 1 h, then terminated with 2 μl of 0.5 mM EDTA and heat inactivated at 65 °C for 20 min. An equal volume of loading buffer (94% formamide, 0.1× TBE, 0.1% bromophenol blue, 0.1% xylene cyanol) was added to the reaction eluent. The samples were heat denatured for 10 min at 100 °C and loaded onto a 14% denaturing acrylamide gel (7 M urea, 1× TBE) and electrophoresed for 90 min at constant 38 W. Samples were imaged using a Typhoon phosphorimager (GE Healthcare). Percent primer extension was calculated with ImageQuant TL 8.2 by measuring the intensity of each product band and dividing by the total radioactivity in the lane or total products, as indicated in the figure legends.
The processivity was calculated as described[40],[67]. Repeat processivity from the direct telomerase extension assays was calculated as R1/2 (equivalent to the half-time for decay in an exponential time course), which represents the median length of DNA product formed, expressed in terms of number of telomere repeats. First, the total volume counts for each product band extend by one or more telomere repeats were obtained using Image Quant TL. The volume counts were then normalized by dividing by the number of radiolabeled guanosines incorporated into the extended products based on the number of repeats added, termed corrected volume (corr vol). The “percent left behind” (%LB) was calculated for each product band by summing the counts for that product band and for every product band below (shorter products), divided by the total counts for the lane, and then multiplied by 100. The natural log of (100−%LB) was calculated and then plotted vs. repeat number for each product length. A linear regression line was fit to the data to determine the slope of the line.

telomerase [2] = molecular target: telomerase (Homo sapiens, UniProt O14746); experiment: Telomerase extension of 32P-end labeled primers with a single dNTP (percent primer extension); type: biochemical; design: made in house; anti-FLAG immunopurification, eluted with 3xFLAG peptide; details: for Percent Primer Extension: 50 μM single dNTP
Procedure: A chain terminating mechanism of inhibition requires that the enzyme adds the modified dNTP to a growing chain, which then blocks further synthesis. […] To test whether telomerase can incorporate other modified dNTPs, and whether the incorporation is chain terminating and/or mutagenic, we conducted direct extension assays in which we radiolabeled the primer and added increasing concentrations (5, 50, and 500 μM) of a single dNTP (Supplementary Figs. 3, 5, 6, and 7). Since modified dNTPs may prefer mispairing, we tested various primers in which the first template base was either rA3, rC1, or rU5 (primer 1, primer 2, and primer 3, respectively), and compared the percent primer extension for each dNTP at the middle 50 μM concentration (Fig. 3). Primers 1 and 2 initiate synthesis at consecutive rA3rA4 or rC1rC2 template bases, respectively, so we could examine both incorporation and extension to the next base. However, the telomerase template lacks tandem rU residues.
Fig. 3 Telomerase insertion of modified dNTPs. Telomerase reactions were conducted with 5 nM ^32P-end labeled primer a Primer 1 (TTAGGG)3, b Primer 2 (GGTTAG)3, or c Primer 3 (AGGGTT)3. Reactions contained cellular-concentration dNTPs (lane 1) or 50 μM of indicated natural dNTP (blue, lanes 2–5), oxidized dNTP (red, lanes 6–8), or therapeutic dNTP (green, lanes 9–11). Products were separated on denaturing gels. […] Letters on the right indicate the template base; P indicates unextended 18-mer primer. Graphs represent the percent of total primers extended. Images are representative of, and data are shown as mean ± s.d. from, three independent experiments. Source data are provided as a Source Data file.
as §1, with “An” for “The reactions were started by the addition of 3 μl of immunopurified telomerase eluent, incubated at 37 °C for 1 h, then terminated with 2 μl of 0.5 mM EDTA and heat inactivated at 65 °C for 20 min. An”
Telomerase reactions were conducted with 5 nM 32P-end labeled primer (a) Primer 1 (TTAGGG)3, (b) Primer 2 (GGTTAG)3, or (c and d) Primer 3 […]
(d) reactions contained 3 µg/µl RNase A. Products were separated on denaturing gels. Letters on the right indicate the template base; P indicates unextended 18-mer primer. Graphs represent the percent of total primers extended for the reactions in panels a – c from one experiment. Panel d is a representative image from three independent experiments. Source data are provided as a Source Data file. […]
Supplementary Fig 4. Time course reactions with telomerase or pol β. (a, b) Telomerase reactions were conducted with 5 nM 32P-end labeled primer (a) Primer 4 (GTTAGG)3 or (b) Primer 2 (GGTTAG)3.
Products were separated on denaturing gels. Letters on the right indicate the template base; P indicates […]
unextended 18-mer primer. […]

[3] = Primer 1 (TTAGGG)3, first template base rA3, Mean of three experiments
[4] = Primer 2 (GGTTAG)3, first template base rC1, Mean of three experiments
[5] = Primer 2 (GGTTAG)3, first template base rC1, single experiments n1-n3
[6] = Primer 3 (AGGGTT)3, first template base rU5, Mean of three experiments
[7] = Primer 3 (AGGGTT)3, first template base rU5, single experiments n1-n3
[8] = end-labeled primers, single dNTP

Sequence of telomerase (Homo sapiens, UniProt O14746) (O14746 whole entry): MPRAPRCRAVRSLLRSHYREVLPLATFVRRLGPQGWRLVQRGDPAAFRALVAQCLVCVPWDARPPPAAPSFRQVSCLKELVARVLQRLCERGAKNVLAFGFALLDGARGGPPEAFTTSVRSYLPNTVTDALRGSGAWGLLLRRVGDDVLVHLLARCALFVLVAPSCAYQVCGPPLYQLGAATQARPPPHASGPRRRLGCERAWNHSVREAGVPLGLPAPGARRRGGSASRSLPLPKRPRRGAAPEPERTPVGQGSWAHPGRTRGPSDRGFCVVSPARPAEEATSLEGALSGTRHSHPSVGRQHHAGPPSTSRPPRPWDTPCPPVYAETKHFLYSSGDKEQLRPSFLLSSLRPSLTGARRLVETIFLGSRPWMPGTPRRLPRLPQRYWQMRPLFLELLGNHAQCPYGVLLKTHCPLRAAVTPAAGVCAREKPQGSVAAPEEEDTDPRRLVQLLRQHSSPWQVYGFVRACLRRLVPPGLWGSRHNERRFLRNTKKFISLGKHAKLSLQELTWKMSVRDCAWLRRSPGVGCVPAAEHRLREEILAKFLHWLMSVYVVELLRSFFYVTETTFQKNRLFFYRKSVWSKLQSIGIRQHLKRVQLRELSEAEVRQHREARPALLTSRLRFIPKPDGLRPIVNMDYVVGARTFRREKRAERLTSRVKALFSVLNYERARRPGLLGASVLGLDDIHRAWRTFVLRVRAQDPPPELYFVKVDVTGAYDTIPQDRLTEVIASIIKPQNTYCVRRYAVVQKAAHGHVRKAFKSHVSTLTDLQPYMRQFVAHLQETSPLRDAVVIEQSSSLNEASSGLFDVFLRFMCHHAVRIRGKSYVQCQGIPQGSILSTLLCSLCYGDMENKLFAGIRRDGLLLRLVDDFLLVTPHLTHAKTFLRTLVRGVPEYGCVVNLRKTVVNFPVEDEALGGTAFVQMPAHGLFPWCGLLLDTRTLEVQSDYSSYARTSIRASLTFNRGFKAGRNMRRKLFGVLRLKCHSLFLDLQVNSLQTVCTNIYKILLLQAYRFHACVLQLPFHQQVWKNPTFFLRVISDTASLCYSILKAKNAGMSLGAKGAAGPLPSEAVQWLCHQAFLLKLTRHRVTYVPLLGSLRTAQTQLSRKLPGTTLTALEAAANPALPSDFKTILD

| SMILES | Effect of POT1-TPP1 on telomerase in presence of analog (in words) (telomerase [1]) | Percent Primer Extension (telomerase [2]; [3]) | % Primer Extension (telomerase [2]; Primer 1, 5µM dNTP) | % Primer Extension (telomerase [2]; Primer 1, 50µM dNTP) | % Primer Extension (telomerase [2]; Primer 1, 500µM dNTP) | Percent Primer Extension (telomerase [2]; [4]) | Percent Primer Extension (telomerase [2]; [5]) | % Primer Extension (telomerase [2]; Primer 2, 5µM dNTP) | % Primer Extension (telomerase [2]; Primer 2, 50µM dNTP) | % Primer Extension (telomerase [2]; Primer 2, 500µM dNTP) | Percent Primer Extension (telomerase [2]; [6]) | Percent Primer Extension (telomerase [2]; [7]) | % Primer Extension (telomerase [2]; Primer 3, 5µM dNTP) | % Primer Extension (telomerase [2]; Primer 3, 50µM dNTP) | % Primer Extension (telomerase [2]; Primer 3, 500µM dNTP) | Quality as telomerase substrate (in words) (telomerase [2]; [8]) | Chain termination after telomerase insertion (in words) (telomerase [2]; [8]) |
| --- | --- | --- | --- | --- | --- | --- | --- | --- | --- | --- | --- | --- | --- | --- | --- | --- | --- |
| Nc1ncnc2c1[nH]c(=O)n2C1CC(O)C(COP(=O)(O)OP(=O)(O)OP(=O)(O)O)O1 (centres unmarked) [8-oxo-dATP] | some POT1–TPP1 stimulation | 0.53% | 0.00% | 0.00% | 1.79% | 0.00% | 0.00% | 0.00% | 0.00% | 0.00% | 0.00% | 0.00% | 0.00% | 0.00% | 0.00% | very poor substrate for telomerase | – |
| O=c1[nH]cnc2c1ncn2C1CCC(COP(=O)(O)OP(=O)(O)OP(=O)(O)O)O1 (centres unmarked) [ddITP] | failed to stimulate telomerase processivity | 1.59% | 3.46% | 4.29% | 6.73% | – | – | 0% | 4.27% | 5.45% | 0.00% | 0.00% | 0% | 0% | 0% | – | genuine telomerase chain terminators |
| Cc1cn(C2CC(O)C(COP(=O)(O)OP(=O)(O)OP(=O)(O)O)O2)c(=O)[nH]c1=O (centres unmarked) [dTTP] | – | – | 30.00% | 36.00% | 45.00% | 0.00% | 0.00% | 0.00% | 0.00% | 0.00% | – | – | 3.79% | 9.26% | 17.69% | – | – |

Reference: paper PMC7576608, “Mechanisms of telomerase inhibition by oxidized and therapeutic dNTPs” (Nature Communications, 2020)
